Values belong to the compound of their own block, whether it stands above or below them.
Legend:
[1] = molecular target: T1, Tyrosine-protein kinase ZAP-70 (Homo sapiens) (UniProt P43403); assay: Inhibition of human recombinant ZAP70 at 500 nM in presence of ATP by radiometric assay relative to control
T1 sequence (whole entry): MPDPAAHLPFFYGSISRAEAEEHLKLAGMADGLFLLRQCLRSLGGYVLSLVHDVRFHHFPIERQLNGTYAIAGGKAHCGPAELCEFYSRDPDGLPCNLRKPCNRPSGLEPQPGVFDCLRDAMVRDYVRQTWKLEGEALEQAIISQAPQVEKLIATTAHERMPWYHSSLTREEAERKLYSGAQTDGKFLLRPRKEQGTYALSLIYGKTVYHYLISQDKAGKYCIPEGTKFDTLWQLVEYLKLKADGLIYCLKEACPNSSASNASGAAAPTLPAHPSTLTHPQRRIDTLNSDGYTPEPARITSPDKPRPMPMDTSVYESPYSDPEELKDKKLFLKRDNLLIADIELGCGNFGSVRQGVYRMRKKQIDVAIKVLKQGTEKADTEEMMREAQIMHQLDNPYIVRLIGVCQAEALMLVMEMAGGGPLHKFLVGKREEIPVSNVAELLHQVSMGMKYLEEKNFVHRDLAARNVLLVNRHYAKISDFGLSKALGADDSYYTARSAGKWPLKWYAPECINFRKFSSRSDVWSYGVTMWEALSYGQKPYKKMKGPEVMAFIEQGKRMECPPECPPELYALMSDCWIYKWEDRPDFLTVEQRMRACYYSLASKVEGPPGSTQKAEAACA

[2] = molecular target: Serine/threonine-protein kinase pim-2 (Homo sapiens) (UniProt Q9P1W9); assay: Inhibition of human recombinant PIM2 at 500 nM in presence of ATP by radiometric assay relative to control
Chain of Serine/threonine-protein kinase pim-2 (Homo sapiens) (Q9P1W9 whole entry, looked up): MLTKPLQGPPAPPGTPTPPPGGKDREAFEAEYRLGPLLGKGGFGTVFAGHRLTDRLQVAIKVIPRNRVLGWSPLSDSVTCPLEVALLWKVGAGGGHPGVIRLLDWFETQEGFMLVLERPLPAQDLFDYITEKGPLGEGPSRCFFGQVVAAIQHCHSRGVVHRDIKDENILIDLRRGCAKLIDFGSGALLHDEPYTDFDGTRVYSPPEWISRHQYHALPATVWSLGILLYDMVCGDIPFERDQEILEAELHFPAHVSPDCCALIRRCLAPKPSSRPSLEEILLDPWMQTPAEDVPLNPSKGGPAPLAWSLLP

[3] = molecular target: T2, Ephrin type-A receptor 8 (Homo sapiens) (UniProt P29322); assay: Inhibition of human recombinant EphA8 at 500 nM in presence of ATP by radiometric assay relative to control
T2 sequence (whole entry): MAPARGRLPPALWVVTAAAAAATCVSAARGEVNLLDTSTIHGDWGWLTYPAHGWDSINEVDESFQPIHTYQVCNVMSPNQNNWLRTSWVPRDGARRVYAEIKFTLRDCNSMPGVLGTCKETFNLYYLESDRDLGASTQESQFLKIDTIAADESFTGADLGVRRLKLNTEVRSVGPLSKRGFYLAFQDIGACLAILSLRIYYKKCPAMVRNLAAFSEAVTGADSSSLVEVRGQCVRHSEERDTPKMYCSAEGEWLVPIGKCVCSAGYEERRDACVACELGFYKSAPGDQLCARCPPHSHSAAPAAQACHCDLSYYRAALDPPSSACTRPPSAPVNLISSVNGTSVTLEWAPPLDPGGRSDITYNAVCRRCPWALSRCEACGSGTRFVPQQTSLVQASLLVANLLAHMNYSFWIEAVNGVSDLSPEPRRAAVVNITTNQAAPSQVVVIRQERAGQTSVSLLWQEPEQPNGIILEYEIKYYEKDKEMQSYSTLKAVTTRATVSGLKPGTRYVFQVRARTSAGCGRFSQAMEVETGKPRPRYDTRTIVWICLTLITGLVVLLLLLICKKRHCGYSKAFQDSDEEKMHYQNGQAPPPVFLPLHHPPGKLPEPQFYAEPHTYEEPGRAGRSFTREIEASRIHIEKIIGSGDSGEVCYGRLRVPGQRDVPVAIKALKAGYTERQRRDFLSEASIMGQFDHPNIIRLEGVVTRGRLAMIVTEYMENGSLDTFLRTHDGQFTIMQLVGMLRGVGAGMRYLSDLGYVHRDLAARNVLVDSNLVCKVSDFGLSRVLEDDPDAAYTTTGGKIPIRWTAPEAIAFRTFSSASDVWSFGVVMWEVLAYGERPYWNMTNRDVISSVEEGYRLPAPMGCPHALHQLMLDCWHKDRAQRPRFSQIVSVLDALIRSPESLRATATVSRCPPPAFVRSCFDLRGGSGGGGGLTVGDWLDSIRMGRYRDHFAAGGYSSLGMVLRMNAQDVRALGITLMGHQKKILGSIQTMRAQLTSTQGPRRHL

[4] = molecular target: T3, cAMP-dependent protein kinase catalytic subunit PRKX (Homo sapiens) (UniProt P51817); assay: Inhibition of human recombinant PRKX at 500 nM in presence of ATP by radiometric assay relative to control
T3 sequence (whole entry): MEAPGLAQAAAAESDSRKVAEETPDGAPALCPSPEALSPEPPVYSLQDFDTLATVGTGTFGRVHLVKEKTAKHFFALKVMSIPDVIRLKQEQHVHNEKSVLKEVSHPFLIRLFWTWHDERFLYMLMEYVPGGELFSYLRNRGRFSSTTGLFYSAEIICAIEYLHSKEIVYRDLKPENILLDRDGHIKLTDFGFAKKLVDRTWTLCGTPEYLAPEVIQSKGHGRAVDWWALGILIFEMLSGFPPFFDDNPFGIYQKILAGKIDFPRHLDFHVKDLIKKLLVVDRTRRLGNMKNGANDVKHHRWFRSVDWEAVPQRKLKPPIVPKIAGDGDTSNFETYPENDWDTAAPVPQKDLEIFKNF

[5] = molecular target: Maternal embryonic leucine zipper kinase (Homo sapiens) (UniProt Q14680); assay: Inhibition of human recombinant MELK at 15 nM in presence of ATP by radiometric assay relative to control
Chain of Maternal embryonic leucine zipper kinase (Homo sapiens) (Q14680 whole entry, looked up): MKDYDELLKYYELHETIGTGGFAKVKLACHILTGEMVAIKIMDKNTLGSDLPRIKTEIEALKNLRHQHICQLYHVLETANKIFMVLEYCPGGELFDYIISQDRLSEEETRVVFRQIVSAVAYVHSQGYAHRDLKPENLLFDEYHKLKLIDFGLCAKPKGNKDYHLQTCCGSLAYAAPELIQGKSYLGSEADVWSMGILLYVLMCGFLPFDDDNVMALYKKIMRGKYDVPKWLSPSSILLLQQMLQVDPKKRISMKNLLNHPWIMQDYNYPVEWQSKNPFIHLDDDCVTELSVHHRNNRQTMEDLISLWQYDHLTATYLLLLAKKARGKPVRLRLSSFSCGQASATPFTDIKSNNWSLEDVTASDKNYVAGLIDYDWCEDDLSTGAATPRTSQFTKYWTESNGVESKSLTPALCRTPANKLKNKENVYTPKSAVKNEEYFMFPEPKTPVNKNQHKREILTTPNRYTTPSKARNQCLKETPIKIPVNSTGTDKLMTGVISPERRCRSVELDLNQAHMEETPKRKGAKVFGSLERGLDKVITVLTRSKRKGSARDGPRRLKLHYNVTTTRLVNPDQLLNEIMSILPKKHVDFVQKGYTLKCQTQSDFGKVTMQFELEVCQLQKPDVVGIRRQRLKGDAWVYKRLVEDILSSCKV

[6] = molecular target: T4, Serine/threonine-protein kinase Sgk2 (Homo sapiens) (UniProt Q9HBY8); assay: Inhibition of human recombinant SGK2 at 15 nM in presence of ATP by radiometric assay relative to control
T4 sequence (whole entry): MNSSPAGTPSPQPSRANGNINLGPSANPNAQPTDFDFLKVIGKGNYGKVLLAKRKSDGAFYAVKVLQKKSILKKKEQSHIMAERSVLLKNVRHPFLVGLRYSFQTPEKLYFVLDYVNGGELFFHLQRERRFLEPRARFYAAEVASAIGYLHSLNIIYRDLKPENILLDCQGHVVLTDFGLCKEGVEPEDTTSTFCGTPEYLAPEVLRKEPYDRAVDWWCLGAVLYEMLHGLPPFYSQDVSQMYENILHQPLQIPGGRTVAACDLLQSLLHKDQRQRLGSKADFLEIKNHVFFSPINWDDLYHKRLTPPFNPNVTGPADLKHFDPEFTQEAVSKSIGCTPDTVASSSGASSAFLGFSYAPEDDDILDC

[7] = molecular target: Proto-oncogene tyrosine-protein kinase receptor Ret (Homo sapiens) (UniProt P07949); assay: Inhibition of human recombinant RET at 15 nM in presence of ATP by radiometric assay relative to control
Chain of Proto-oncogene tyrosine-protein kinase receptor Ret (Homo sapiens) (P07949 whole entry): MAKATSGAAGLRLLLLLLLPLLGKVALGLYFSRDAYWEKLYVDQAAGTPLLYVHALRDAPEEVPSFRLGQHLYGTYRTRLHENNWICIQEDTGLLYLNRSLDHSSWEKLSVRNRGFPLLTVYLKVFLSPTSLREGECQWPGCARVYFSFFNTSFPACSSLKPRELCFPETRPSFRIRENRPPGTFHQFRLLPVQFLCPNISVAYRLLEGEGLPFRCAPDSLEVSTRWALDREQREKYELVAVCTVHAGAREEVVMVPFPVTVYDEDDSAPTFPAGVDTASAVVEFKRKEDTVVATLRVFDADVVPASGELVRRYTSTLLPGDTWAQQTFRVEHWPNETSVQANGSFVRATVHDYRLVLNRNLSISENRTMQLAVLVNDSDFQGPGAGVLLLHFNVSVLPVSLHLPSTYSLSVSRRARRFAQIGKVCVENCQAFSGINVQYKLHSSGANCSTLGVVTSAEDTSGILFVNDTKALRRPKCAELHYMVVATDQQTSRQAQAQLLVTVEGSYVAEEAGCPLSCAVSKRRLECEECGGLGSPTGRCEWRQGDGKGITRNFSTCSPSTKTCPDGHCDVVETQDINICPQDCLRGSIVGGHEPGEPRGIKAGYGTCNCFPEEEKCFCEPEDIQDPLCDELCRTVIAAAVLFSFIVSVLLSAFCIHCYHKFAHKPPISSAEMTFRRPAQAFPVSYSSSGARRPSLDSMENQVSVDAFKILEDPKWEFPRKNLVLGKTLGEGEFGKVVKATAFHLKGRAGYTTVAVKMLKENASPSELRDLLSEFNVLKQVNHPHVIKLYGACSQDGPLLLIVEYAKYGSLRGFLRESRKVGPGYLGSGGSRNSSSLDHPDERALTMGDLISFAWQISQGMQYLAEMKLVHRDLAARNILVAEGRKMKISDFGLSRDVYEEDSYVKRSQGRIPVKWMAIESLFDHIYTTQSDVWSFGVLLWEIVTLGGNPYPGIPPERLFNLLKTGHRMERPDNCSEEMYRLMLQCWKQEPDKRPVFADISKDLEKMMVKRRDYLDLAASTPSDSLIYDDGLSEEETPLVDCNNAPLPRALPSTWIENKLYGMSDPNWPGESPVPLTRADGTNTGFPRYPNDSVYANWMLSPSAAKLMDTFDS

[8] = molecular target: Serine/threonine-protein kinase Nek4 (Homo sapiens) (UniProt P51957); assay: Inhibition of human recombinant NEK4 at 40 nM related to control ULK1
Chain of Serine/threonine-protein kinase Nek4 (Homo sapiens) (P51957 whole entry, looked up): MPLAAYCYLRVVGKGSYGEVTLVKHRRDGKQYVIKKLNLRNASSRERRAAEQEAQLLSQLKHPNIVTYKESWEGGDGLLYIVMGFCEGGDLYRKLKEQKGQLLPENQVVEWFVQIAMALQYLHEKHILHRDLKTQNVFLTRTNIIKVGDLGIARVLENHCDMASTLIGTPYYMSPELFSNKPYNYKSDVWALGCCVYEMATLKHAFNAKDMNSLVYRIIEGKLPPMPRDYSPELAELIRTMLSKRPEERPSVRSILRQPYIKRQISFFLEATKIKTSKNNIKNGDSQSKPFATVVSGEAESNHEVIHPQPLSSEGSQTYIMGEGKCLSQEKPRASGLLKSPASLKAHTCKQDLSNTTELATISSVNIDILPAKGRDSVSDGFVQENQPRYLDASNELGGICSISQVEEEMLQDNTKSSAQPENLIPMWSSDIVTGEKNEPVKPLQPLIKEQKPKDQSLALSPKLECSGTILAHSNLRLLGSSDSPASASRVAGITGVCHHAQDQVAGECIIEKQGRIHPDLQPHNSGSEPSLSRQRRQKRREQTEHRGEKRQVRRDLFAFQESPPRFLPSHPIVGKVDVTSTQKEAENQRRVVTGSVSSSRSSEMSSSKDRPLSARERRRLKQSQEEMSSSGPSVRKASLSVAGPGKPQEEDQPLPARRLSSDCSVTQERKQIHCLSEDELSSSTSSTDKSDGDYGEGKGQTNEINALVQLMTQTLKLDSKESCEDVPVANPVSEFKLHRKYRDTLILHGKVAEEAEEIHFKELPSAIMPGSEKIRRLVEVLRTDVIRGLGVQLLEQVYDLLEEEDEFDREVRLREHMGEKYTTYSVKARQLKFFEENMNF

[9] = molecular target: Serine/threonine-protein kinase N2 (Homo sapiens) (UniProt Q16513); assay: Inhibition of human recombinant PKN2 at 40 nM in presence of ATP by radiometric assay relative to control
Chain of Serine/threonine-protein kinase N2 (Homo sapiens) (Q16513 whole entry, looked up): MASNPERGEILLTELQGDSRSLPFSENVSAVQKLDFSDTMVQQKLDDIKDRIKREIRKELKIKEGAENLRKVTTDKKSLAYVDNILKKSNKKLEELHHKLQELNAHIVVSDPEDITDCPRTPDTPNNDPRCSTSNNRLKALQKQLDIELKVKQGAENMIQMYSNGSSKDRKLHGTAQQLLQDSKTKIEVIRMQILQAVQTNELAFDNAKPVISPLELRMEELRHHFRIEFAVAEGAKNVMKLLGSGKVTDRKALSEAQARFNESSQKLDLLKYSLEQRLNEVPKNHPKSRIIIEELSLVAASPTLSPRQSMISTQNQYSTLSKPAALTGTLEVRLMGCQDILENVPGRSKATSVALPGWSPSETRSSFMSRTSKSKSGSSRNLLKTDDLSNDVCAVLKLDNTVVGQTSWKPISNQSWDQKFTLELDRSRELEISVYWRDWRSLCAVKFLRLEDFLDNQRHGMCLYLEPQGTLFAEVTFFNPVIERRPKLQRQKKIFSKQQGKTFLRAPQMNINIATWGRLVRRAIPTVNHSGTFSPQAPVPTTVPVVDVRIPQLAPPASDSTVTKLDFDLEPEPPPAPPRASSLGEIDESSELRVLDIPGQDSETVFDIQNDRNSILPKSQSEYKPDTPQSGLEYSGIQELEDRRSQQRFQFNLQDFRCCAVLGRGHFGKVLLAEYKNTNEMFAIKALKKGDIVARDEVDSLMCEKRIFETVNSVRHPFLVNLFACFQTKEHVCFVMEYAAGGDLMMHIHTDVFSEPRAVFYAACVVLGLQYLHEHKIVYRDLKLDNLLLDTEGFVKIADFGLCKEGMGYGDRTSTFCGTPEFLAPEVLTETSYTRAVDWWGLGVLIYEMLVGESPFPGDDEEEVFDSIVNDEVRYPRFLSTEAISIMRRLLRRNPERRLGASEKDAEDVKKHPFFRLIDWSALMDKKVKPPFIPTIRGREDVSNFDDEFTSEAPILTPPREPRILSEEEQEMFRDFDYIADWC

[10] = molecular target: Ephrin type-A receptor 7 (Homo sapiens) (UniProt Q15375); assay: Inhibition of human recombinant EphA7 at 40 nM in presence of ATP by radiometric assay relative to control
Chain of Ephrin type-A receptor 7 (Homo sapiens) (Q15375 28-998 limits assumed): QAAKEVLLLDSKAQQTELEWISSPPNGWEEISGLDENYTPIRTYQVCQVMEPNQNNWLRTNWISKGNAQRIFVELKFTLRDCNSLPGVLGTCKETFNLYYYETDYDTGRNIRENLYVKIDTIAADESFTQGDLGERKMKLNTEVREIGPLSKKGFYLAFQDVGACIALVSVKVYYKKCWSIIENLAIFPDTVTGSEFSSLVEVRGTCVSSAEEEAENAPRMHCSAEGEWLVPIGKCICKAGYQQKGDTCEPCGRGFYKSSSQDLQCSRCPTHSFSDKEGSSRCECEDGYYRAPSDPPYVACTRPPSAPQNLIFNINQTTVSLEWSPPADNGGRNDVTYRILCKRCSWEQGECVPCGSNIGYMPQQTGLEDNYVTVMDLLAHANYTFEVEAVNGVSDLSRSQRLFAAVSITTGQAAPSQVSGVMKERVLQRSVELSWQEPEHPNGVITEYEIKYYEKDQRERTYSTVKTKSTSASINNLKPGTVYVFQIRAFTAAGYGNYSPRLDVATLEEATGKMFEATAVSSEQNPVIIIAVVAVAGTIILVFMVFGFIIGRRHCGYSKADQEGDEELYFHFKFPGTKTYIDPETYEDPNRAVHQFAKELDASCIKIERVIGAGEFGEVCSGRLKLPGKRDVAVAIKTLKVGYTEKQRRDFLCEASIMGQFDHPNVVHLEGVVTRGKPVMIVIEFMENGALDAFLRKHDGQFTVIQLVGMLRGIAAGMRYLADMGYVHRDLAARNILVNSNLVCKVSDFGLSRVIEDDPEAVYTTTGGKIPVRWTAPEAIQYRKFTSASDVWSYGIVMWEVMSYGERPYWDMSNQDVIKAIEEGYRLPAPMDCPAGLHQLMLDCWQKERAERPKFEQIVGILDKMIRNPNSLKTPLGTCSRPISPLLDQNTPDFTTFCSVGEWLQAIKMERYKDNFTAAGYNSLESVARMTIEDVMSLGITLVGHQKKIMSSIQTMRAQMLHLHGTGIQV

inhibition [1]: 1%
inhibition [2]: 2%
inhibition [3]: 2%
inhibition [4]: 16%
SMILES: CNC(=O)c1ccccc1Oc1nc(Nc2cc(OC)c(OC)c(OC)c2)ncc1Br

inhibition [5]: 67%
inhibition [6]: 0%
inhibition [7]: 14%
SMILES: CC(C)[C@H](NC(=O)c1cc(-c2cnn3cc(-c4ccc(OCCN5CCCCC5)cc4)cnc23)cs1)C(F)(F)F

fold change (FC) [8]: 0.05
inhibition [9]: 0%
inhibition [10]: 0%
SMILES: O=C(N[C@@H](C1CC1)C(F)(F)F)c1cc(-c2cnn3cc(-c4ccc(F)cc4)cnc23)cs1
